From paper PMC7252619 (PLoS ONE, 2020)
Where two headings read alike, the source gives them in different places.

How the values were obtained:
VEGFR2 = VEGFR2 (Homo sapiens, UniProt P35968); test: Kinase activity test (ReactionBiology), % enzyme activity relative to DMSO; format: biochemical; set-up: purchased ReactionBiology; settings: VEGFR2;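 further: VEGFR2 was one member of a ten-kinase screening panel testing marketed FDA-approved drugs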
CK1d = biological target: T1, CK1d (Homo sapiens, UniProt P48730); test: as above; format: biochemical; settings: CK1d
T1 construct: purchased ReactionBiology

[1] = 1 uM, Average, read-out: % Enzyme Activity (relative to DMSO controls), Average
[2] = 1 uM, replicate Data 1, read-out: % Enzyme Activity (relative to DMSO controls), Data 1
[3] = 1 uM, replicate Data 2, read-out: % Enzyme Activity (relative to DMSO controls), Data 2
[4] = 10 uM, Average, read-out: % Enzyme Activity (relative to DMSO controls), Average
[5] = 10 uM, replicate Data 1, read-out: % Enzyme Activity (relative to DMSO controls), Data 1
[6] = 10 uM, replicate Data 2, read-out: % Enzyme Activity (relative to DMSO controls), Data 2

Sequence of VEGFR2 (P35968 20-1356): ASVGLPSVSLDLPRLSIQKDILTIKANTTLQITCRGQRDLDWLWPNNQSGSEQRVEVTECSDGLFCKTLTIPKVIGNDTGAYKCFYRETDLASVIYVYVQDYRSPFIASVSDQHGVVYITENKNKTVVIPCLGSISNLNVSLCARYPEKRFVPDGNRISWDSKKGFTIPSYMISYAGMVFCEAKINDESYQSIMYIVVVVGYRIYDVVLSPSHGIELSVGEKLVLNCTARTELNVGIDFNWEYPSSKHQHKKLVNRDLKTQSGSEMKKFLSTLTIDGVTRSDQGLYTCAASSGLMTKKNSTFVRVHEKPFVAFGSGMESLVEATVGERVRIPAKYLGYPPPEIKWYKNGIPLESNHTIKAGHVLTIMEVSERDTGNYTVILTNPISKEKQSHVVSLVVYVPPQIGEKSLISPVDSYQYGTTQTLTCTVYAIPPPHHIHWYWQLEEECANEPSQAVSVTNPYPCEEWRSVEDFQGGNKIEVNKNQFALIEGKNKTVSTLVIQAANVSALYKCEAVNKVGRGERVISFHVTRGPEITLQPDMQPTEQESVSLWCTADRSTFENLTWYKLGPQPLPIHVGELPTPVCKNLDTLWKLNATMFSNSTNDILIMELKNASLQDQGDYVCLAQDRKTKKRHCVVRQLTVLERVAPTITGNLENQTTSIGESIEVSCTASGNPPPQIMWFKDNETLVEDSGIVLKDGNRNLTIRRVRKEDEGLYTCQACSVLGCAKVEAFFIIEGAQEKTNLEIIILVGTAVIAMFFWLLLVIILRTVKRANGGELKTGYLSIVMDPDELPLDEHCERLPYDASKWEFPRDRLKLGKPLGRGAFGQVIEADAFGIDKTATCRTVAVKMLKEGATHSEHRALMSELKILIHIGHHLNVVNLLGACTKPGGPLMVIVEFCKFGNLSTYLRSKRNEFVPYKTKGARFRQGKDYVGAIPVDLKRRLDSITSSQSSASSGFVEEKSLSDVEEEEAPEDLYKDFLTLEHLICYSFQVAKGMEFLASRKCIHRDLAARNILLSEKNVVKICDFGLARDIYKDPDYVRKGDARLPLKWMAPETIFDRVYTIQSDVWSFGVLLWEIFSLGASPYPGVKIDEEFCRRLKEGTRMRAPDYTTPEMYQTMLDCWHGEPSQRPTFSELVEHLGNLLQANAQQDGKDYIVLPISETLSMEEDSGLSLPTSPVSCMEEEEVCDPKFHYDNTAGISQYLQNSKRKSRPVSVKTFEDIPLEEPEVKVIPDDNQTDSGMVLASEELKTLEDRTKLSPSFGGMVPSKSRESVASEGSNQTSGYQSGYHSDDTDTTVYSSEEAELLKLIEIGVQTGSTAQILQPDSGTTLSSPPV
T1 sequence (P48730 whole entry): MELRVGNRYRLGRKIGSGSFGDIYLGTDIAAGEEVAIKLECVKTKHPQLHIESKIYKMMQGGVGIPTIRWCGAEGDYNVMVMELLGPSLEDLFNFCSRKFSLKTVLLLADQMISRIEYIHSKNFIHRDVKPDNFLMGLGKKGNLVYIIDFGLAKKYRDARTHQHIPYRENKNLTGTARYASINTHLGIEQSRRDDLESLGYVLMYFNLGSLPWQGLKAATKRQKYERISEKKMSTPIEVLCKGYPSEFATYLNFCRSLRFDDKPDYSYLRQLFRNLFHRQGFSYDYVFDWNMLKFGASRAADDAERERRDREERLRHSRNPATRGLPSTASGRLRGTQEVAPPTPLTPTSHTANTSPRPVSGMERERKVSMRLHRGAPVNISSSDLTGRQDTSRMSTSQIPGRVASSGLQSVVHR

Row | SMILES | % Enzyme Activity (relative to DMSO controls), Average (VEGFR2; 1 uM, Average) [%] | % Enzyme Activity (relative to DMSO controls), Data 1 (VEGFR2; 1 uM, replicate Data 1) [%] | % Enzyme Activity (relative to DMSO controls), Data 2 (VEGFR2; 1 uM, replicate Data 2) [%] | % Enzyme Activity (relative to DMSO controls), Average (VEGFR2; 10 uM, Average) [%] | % Enzyme Activity (relative to DMSO controls), Data 1 (VEGFR2; 10 uM, replicate Data 1) [%] | % Enzyme Activity (relative to DMSO controls), Data 2 (VEGFR2; 10 uM, replicate Data 2) [%] | % Enzyme Activity (relative to DMSO controls), Average (CK1d; 1 uM, Average) [%] | % Enzyme Activity (relative to DMSO controls), Data 1 (CK1d; 1 uM, replicate Data 1) [%] | % Enzyme Activity (relative to DMSO controls), Data 2 (CK1d; 1 uM, replicate Data 2) [%] | % Enzyme Activity (relative to DMSO controls), Average (CK1d; 10 uM, Average) [%] | % Enzyme Activity (relative to DMSO controls), Data 1 (CK1d; 10 uM, replicate Data 1) [%] | % Enzyme Activity (relative to DMSO controls), Data 2 (CK1d; 10 uM, replicate Data 2) [%] | further results
1 | Cn1c(=O)cc(N2CCC[C@@H](N)C2)n(Cc2ccccc2C#N)c1=O [Alogliptin] | 110.86 | 108.92 | 112.79 | 104.24 | 106.32 | 102.16 |  |  |  |  |  |  | 
2 | CCCCC[C@H](O)/C=C/[C@H]1[C@H](O)CC(=O)[C@@H]1CCCCCCC(=O)O [Alprostadil] |  |  |  |  |  |  | 100.17 | 100.59 | 99.74 | 106.64 | 108.06 | 105.21 | 
3 | CC1(C)S[C@@H]2[C@H](NC(=O)[C@H](N)c3ccccc3)C(=O)N2[C@H]1C(=O)O [Ampicillin] | 99.13 | 103.06 | 95.2 | 96.01 | 95.11 | 96.91 |  |  |  |  |  |  | 
4 | CC(C)CN(C[C@@H](O)[C@H](Cc1ccccc1)NC(=O)O[C@H]1CCOC1)S(=O)(=O)c1ccc(N)cc1 [Amprenavir] |  |  |  |  |  |  | 107.55 |  |  |  |  |  | 
5 | CC(C)(Oc1ccc(CCNC(=O)c2ccc(Cl)cc2)cc1)C(=O)O [Bezafibrate] | 106.10 | 100.57 | 111.63 | 106.53 | 106.16 | 106.89 |  |  |  |  |  |  | 
6 | CC(C)Nc1cccnc1N1CCN(C(=O)c2cc3cc(NS(C)(=O)=O)ccc3[nH]2)CC1 [Delavirdine] |  |  |  |  |  |  |  |  |  | 101.06 |  |  | 
7 | CNCCCN1c2ccccc2CCc2ccccc21 [Desipramine] | 96.96 |  |  | 89.29 |  |  |  |  |  | 133.63 |  |  | 
8 | CC1=Nc2ccc(Cl)cc2S(=O)(=O)N1 [Diazoxide] |  |  |  |  |  |  | 95.10 | 99.58 | 90.62 | 97.15 | 96.56 | 97.73 | 
9 | COc1cccc2c1C(=O)c1c(O)c3c(c(O)c1C2=O)C[C@@](O)(C(=O)CO)C[C@@H]3O[C@H]1C[C@H](N)[C@H](O)[C@H](C)O1 [Doxorubicin] | 110.51 | 112.09 | 108.92 | 100.16 | 99.85 | 100.47 |  |  |  |  |  |  | 
10 | C[C@]12CC[C@@H]3c4ccc(O)cc4CC[C@H]3[C@@H]1CCC2=O [Estrone] | 106.40 | 108.92 | 103.87 | 104.79 | 105.29 | 104.29 |  |  |  |  |  |  | 
11 | O=c1[nH]cc(F)c(=O)[nH]1 [Fluorouracil] | 113.72 | 118.24 | 109.2 | 105.92 | 109.47 | 102.36 | 104.91 | 106.12 | 103.69 | 106.01 | 110.21 | 101.8 | 
12 | CCC1=C(C)CN(C(=O)NCCc2ccc(S(=O)(=O)NC(=O)N[C@H]3CC[C@H](C)CC3)cc2)C1=O [Glimepiride] |  |  |  |  |  |  | 106.25 | 107.91 | 104.59 | 89.28 | 92.55 | 86 | 
13 | CC(=O)[C@]1(O)Cc2c(O)c3c(c(O)c2[C@@H](O[C@H]2C[C@H](N)[C@H](O)[C@H](C)O2)C1)C(=O)c1ccccc1C3=O [Idarubicin] | 111.69 | 111.85 | 111.52 | 106.65 | 105.86 | 107.43 |  |  |  |  |  |  | 
14 | COc1ccc2c(c1)c(CC(=O)O)c(C)n2C(=O)c1ccc(Cl)cc1 [Iomethacin] | 105.43 | 105.61 | 105.25 | 102.46 | 106.14 | 98.78 | 102.15 | 102.08 | 102.21 | 95.39 | 98.78 | 92 | 
15 | CO[C@@]12[C@H](COC(N)=O)C3=C(C(=O)C(C)=C(N)C3=O)N1C[C@@H]1N[C@@H]12 [Mitomycin] |  |  |  |  |  |  | 98.48 | 100.68 | 96.28 | 158.59 | 209.38 | 107.8 | 
16 | CN[C@H]1CC[C@@H](c2ccc(Cl)c(Cl)c2)c2ccccc21 [Sertraline] | 106.32 | 107.12 | 105.51 | 105.91 | 107.3 | 104.52 | 106.53 | 105.95 | 107.11 | 163.39 | 106.22 | 220.55 | 
17 | CCCCNc1ccc(C(=O)OCCN(C)C)cc1 [Tetracaine] |  |  |  |  |  |  | 110.04 | 103.65 | 116.43 | 118.78 | 119.29 | 118.26 | 
18 | Cc1ccc(C(=O)c2cc(O)c(O)c([N+](=O)[O-])c2)cc1 [Tolcapone, reference compound] |  |  |  |  |  |  |  |  |  |  |  |  | remaining activity at 1 µM (CK1d; [1]): 91.7%; remaining activity at 1 µM (CK1d; [2]): 91.5%; remaining activity at 1 µM (CK1d; [3]): 91.9%; remaining activity at 10 µM (CK1d; [4]): 35.6%; remaining activity at 10 µM (CK1d; [5]): 33.2%; remaining activity at 10 µM (CK1d; [6]): 38%; remaining activity at 1 µM (CK1d; compound 1μM, relative to DMSO controls, read-out: % Enzyme activity at 1μM): 91.7%; remaining activity at 10 µM (CK1d; compound 10μM, relative to DMSO controls, read-out: % Enzyme activity at 10μM): 35.6%
19 | CCCc1nc(C)c2c(=O)[nH]c(-c3cc(S(=O)(=O)N4CCN(CC)CC4)ccc3OCC)nn12 [Vardenafil] |  |  |  |  |  |  |  |  |  |  |  |  | remaining activity at 1 µM (CK1d; [1]): 102%; remaining activity at 1 µM (CK1d; [2]): 100%; remaining activity at 1 µM (CK1d; [3]): 104%; remaining activity at 10 µM (CK1d; [4]): 110%; remaining activity at 10 µM (CK1d; [5]): 107%; remaining activity at 10 µM (CK1d; [6]): 112%
20 | CS(=O)(=O)c1ccc(C(=O)Nc2ccc(Cl)c(-c3ccccn3)c2)c(Cl)c1 [Vismodegib] |  |  |  |  |  |  |  |  |  |  |  |  | remaining activity at 1 µM (VEGFR2; [1]): 103%; remaining activity at 1 µM (VEGFR2; [2]): 103%; remaining activity at 1 µM (VEGFR2; [3]): 103%; remaining activity at 10 µM (VEGFR2; [4]): 91.1%; remaining activity at 10 µM (VEGFR2; [5]): 97.8%; remaining activity at 10 µM (VEGFR2; [6]): 84.5%
